According to US11427567B2, “Imidazolyl pyrimidinylamine compounds as CDK2 inhibitors” (Incyte Corporation, priority 2019, dated 2022):

Each compound was assayed against CDK2/Cyclin E1 (Homo sapiens (Human), UniProt P24941) (assay: CDK2/Cyclin E1 HTRF enzyme activity assay (Example A)). Details: 1 mM ATP.
Format: biochemical
Method: Assays were conducted in white 384-well polystyrene plates in a final reaction volume of 8 μL. […] HTRF signals were read after 1 hour at room temperature on a PHERAstar FS plate reader (BMG Labtech). Data was analyzed with IDBS XLFit and GraphPad Prism 5.0 software using a three or four parameter dose response curve to determine IC50 for each compound.

Row | Compound | IC50 [µM]
1 | CS(=O)(=O)N1CC[C@H](Nc2ncc(C(F)(F)F)c(-c3cn(CC(F)F)cn3)n2)[C@H](F)C1 [Example 330, 4-(1-(2,2-Difluoroethyl)-1H-imidazol-4-yl)-N-((3R,4S)-3-fluoro-1-(methylsulfonyl)piperidin-4-yl)-5-(trifluoromethyl)pyrimidin-2-amine] | ≤ 0.05
2 | CS(=O)(=O)N1CC[C@@H](Nc2ncc(C(F)(F)F)c(-c3cn(CC(F)F)cn3)n2)[C@H](F)C1 [Example 331, 4-(1-(2,2-Difluoroethyl)-1H-imidazol-4-yl)-N-((3R,4R)-3-fluoro-1-(methylsulfonyl)piperidin-4-yl)-5-(trifluoromethyl)pyrimidin-2-amine] | ≤ 0.05
3 | C[C@@H]1CN(S(=O)(=O)C2CC2)CC[C@@H]1Nc1ncc(C(F)(F)F)c(-c2cn(CC(C)(C)O)cn2)n1 [Example 332, 1-(4-(2-(((3R,4S)-1-(Cyclopropylsulfonyl)-3-methylpiperidin-4-yl)amino)-5-(trifluoromethyl)pyrimidin-4-yl)-1H-imidazol-1-yl)-2-methylpropan-2-ol] | ≤ 0.05
4 | CC(C)(O)Cn1cnc(-c2nc(N[C@@H]3CCN(S(=O)(=O)C4CC4)C[C@H]3F)ncc2C(F)(F)F)c1 [Example 333, 1-(4-(2-(((3R,4R)-1-(Cyclopropylsulfonyl)-3-fluoropiperidin-4-yl)amino)-5-4-yl)-1H-imidazol-1-yl)-2-methylpropan-2-ol] | ≤ 0.05
5 | Cn1cc(S(=O)(=O)N2CCC(Nc3ncc(C(F)(F)F)c(-c4cn(CC(F)F)cn4)n3)CC2)cn1 [Example 334, 4-(1-(2,2-Difluoroethyl)-1H-imidazol-4-yl)-N-(1-((1-methyl-1H-pyrazol-4-yl)sulfonyl)piperidin-4-yl)-5-(trifluoromethyl)pyrimidin-2-amine] | ≤ 0.05
6 | Cn1ccc(S(=O)(=O)N2CC[C@@H](Nc3ncc(C(F)(F)F)c(-c4cn(CC(C)(C)O)cn4)n3)[C@H](F)C2)n1 [Example 335, 1-(4-(2-(((3R,4R)-3-Fluoro-1-((1-methyl-1H-pyrazol-3-yl)sulfonyl)piperidin-4-yl)amino)-5-(trifluoromethyl)pyrimidin-4-yl)-1H-imidazol-1-yl)-2-methylpropan-2-ol] | ≤ 0.05
7 | Cn1cc(S(=O)(=O)N2CC[C@@H](Nc3ncc(C(F)(F)F)c(-c4cn(CC(C)(C)O)cn4)n3)[C@H](F)C2)cn1 [Example 336, 1-(4-(2-(((3R,4R)-3-Fluoro-1-((1-methyl-1H-pyrazol-4-yl)sulfonyl)piperidin-4-yl)amino)-5-(trifluoromethyl)pyrimidin-4-yl)-1H-imidazol-1-yl)-2-methylpropan-2-ol] | ≤ 0.05
8 | C[C@@H]1CN(S(=O)(=O)c2cn(C)cn2)CC[C@@H]1Nc1ncc(C(F)(F)F)c(-c2cn(CC(F)F)cn2)n1 [Example 337, 4-(1-(2,2-Difluoroethyl)-1H-imidazol-4-yl)-N-((3R,4S)-3-methyl-1-((1-methyl-1H-imidazol-4-yl)sulfonyl)piperidin-4-yl)-5-(trifluoromethyl)pyrimidin-2-amine] | ≤ 0.05
9 | CC(C)(O)Cn1cnc(-c2nc(NC3CCN(S(=O)(=O)c4ccccn4)CC3)ncc2C(F)(F)F)c1 [Example 338, 2-Methyl-1-(4-(2-((1-(pyridin-2-ylsulfonyl)piperidin-4-yl)amino)-5-(trifluoromethyl)pyrimidin-4-yl)-1H-imidazol-1-yl)propan-2-ol] | ≤ 0.05
10 | CCN1CCN(Cc2ccc(-n3cnc(-c4nc(NC5CCN(S(C)(=O)=O)CC5)ncc4C(F)(F)F)c3)c(C#N)c2)CC1 [Example 339, 5-((4-Ethylpiperazin-1-yl)methyl)-2-(4-(2-((1-(methylsulfonyl)piperidin-4-yl)amino)-5-(trifluoromethyl)pyrimidin-4-yl)-1H-imidazol-1-yl)benzonitrile] | ≤ 0.05
11 | CC(C)NCc1ccc(-n2cnc(-c3nc(NC4CCN(S(C)(=O)=O)CC4)ncc3C(F)(F)F)c2)c(C#N)c1 [Example 340, 5-((Isopropylamino)methyl)-2-(4-(2-((1-(methylsulfonyl)piperidin-4-yl)amino)-5-(trifluoromethyl)pyrimidin-4-yl)-1H-imidazol-1-yl)benzonitrile] | ≤ 0.05
12 | CCNCc1ccc(-n2cnc(-c3nc(NC4CCN(S(C)(=O)=O)CC4)ncc3C(F)(F)F)c2)c(C#N)c1 [Example 341, 5-((Ethylamino)methyl)-2-(4-(2-((1-(methylsulfonyl)piperidin-yl)amino)-5-(trifluoromethyl)pyrimidin-4-yl)-1H-imidazol-1-yl)benzonitrile] | ≤ 0.05
13 | CS(=O)(=O)N1CCC(Nc2ncc(C(F)(F)F)c(-c3cn(-c4ccc(CN5CC[C@@H](O)C5)cc4C#N)cn3)n2)CC1 [Example 342, (R)-5-((3-Hydroxypyrrolidin-1-yl)methyl)-2-(4-(2-((1-(methylsulfonyl)piperidin-4-yl)amino)-5-(trifluoromethyl)pyrimidin-4-yl)-1H-imidazol-1-yl)benzonitrile] | ≤ 0.05
14 | CS(=O)(=O)N1CCC(Nc2ncc(C(F)(F)F)c(-c3cn(-c4ccc(CNC5CC5)cc4C#N)cn3)n2)CC1 [Example 343, 5-((Cyclopropylamino)methyl)-2-(4-(2-((1-(methylsulfonyl)piperidin-4-yl)amino)-5-(trifluoromethyl)pyrimidin-4-yl)-1H-imidazol-1-yl)benzonitrile] | ≤ 0.05
15 | CN1CCN(Cc2ccc(-n3cnc(-c4nc(NC5CCN(S(C)(=O)=O)CC5)ncc4C(F)(F)F)c3)c(C#N)c2)CC1 [Example 344, 5-((4-Methylpiperazin-1-yl)methyl)-2-(4-(2-((1-(methylsulfonyl)piperidin-4-yl)amino)-5-(trifluoromethyl)pyrimidin-4-yl)-1H-imidazol-1-yl)benzonitrile] | ≤ 0.05
16 | CS(=O)(=O)N1CCC(Nc2ncc(C(F)(F)F)c(-c3cn(-c4ccc(CN5CCCCC5)cc4C#N)cn3)n2)CC1 [Example 345, 2-(4-(2-((1-(Methylsulfonyl)piperidin-4-yl)amino)-5-(trifluoromethyl)pyrimidin-4-yl)-1H-imidazol-1-yl)-5-(piperidin-1-ylmethyl)benzonitrile] | ≤ 0.05
17 | CS(=O)(=O)N1CCC(Nc2ncc(C(F)(F)F)c(-c3cn(-c4ccc(CN5CCCC5)cc4C#N)cn3)n2)CC1 [Example 346, 2-(4-(2-((1-(Methylsulfonyl)piperidin-4-yl)amino)-5-(trifluoromethyl)pyrimidin-4-yl)-1H-imidazol-1-yl)-5-(pyrrolidin-1-ylmethyl)benzonitrile] | ≤ 0.05
18 | CS(=O)(=O)N1CCC(Nc2ncc(C(F)(F)F)c(-c3cn(-c4c(F)cc(CNC5CC5)cc4F)cn3)n2)CC1 [Example 347, 4-(1-(4-((Cyclopropylamino)methyl)-2,6-difluorophenyl)-1H-imidazol-4-yl)-N-(1-(methylsulfonyl)piperidin-4-yl)-5-(trifluoromethyl)pyrimidin-2-amine] | ≤ 0.05
19 | CC(C)NCc1cc(F)c(-n2cnc(-c3nc(NC4CCN(S(C)(=O)=O)CC4)ncc3C(F)(F)F)c2)c(F)c1 [Example 348] | ≤ 0.05
20 | CCNCc1cc(F)c(-n2cnc(-c3nc(NC4CCN(S(C)(=O)=O)CC4)ncc3C(F)(F)F)c2)c(F)c1 [Example 349, 4-(1-(4-((Ethylamino)methyl)-2,6-difluorophenyl)-1H-imidazol-4-yl)-N-(1-(methylsulfonyl)piperidin-4-yl)-5-(trifluoromethyl)pyrimidin-2-amine] | ≤ 0.05
21 | CNCc1cc(F)c(-n2cnc(-c3nc(NC4CCN(S(C)(=O)=O)CC4)ncc3C(F)(F)F)c2)c(F)c1 [Example 350, 4-(1-(2,6-Difluoro-4-((methylamino)methyl)phenyl)-1H-imidazol-4-yl)-N-(1-(methylsulfonyl)piperidin-4-yl)-5-(trifluoromethyl)pyrimidin-2-amine] | ≤ 0.05
22 | CCN1CCN(Cc2cc(F)c(-n3cnc(-c4nc(NC5CCN(S(C)(=O)=O)CC5)ncc4C(F)(F)F)c3)c(F)c2)CC1 [Example 351, 4-(1-(4-((4-Ethylpiperazin-1-yl)methyl)-2,6-difluorophenyl)-1H-imidazol-4-yl)-N-(1-(methylsulfonyl)piperidin-4-yl)-5-(trifluoromethyl)pyrimidin-2-amine] | ≤ 0.05
23 | CN1CCN(Cc2cc(F)c(-n3cnc(-c4nc(NC5CCN(S(C)(=O)=O)CC5)ncc4C(F)(F)F)c3)c(F)c2)CC1 [Example 352, 4-(1-(2,6-Difluoro-4-((4-methylpiperazin-1-yl)methyl)phenyl)-1H-imidazol-4-yl)-N-(1-(methylsulfonyl)piperidin-4-yl)-5-(trifluoromethyl)pyrimidin-2-amine] | ≤ 0.05
24 | COC1CN(Cc2ccc(-n3cc(-c4nc(NC5CCN(S(C)(=O)=O)CC5)ncc4C(F)(F)F)nc3C)c(F)c2)C1 [Example 353, 4-(1-(2-Fluoro-4-((3-methoxyazetidin-1-yl)methyl)phenyl)-2-methyl-1H-imidazol-4-yl)-N-(1-(methylsulfonyl)piperidin-4-yl)-5-(trifluoromethyl)pyrimidin-2-amine] | ≤ 0.05
25 | Cc1nc(-c2nc(NC3CCN(S(C)(=O)=O)CC3)ncc2C(F)(F)F)cn1-c1ccc(CN2CC(C)(O)C2)cc1F [Example 354, 1-(3-Fluoro-4-(2-methyl-4-(2-((1-(methylsulfonyl)piperidin-4-yl)amino)-5-(trifluoromethyl)pyrimidin-4-yl)-1H-imidazol-1-yl)benzyl)-3-methylazetidin-3-ol] | ≤ 0.05
26 | Cc1nc(-c2nc(NC3CCN(S(C)(=O)=O)CC3)ncc2C(F)(F)F)cn1-c1ccc(CN2CC(O)C2)cc1F [Example 355, 1-(3-Fluoro-4-(2-methyl-4-(2-((1-(methylsulfonyl)piperidin-4-yl)amino)-5-(trifluoromethyl)pyrimidin-4-yl)-1H-imidazol-1-yl)benzyl)azetidin-3-ol] | ≤ 0.05
27 | Cc1nc(-c2nc(NC3CCN(S(C)(=O)=O)CC3)ncc2C(F)(F)F)cn1-c1ccc(CNC2CC2)cc1F [Example 356, 4-(1-(4-((Cyclopropylamino)methyl)-2-fluorophenyl)-2-methyl-1H-imidazol-4-yl)-N-(1-(methylsulfonyl)piperidin-4-yl)-5-(trifluoromethyl)pyrimidin-2-amine] | ≤ 0.05
